Experimental data: ChEMBL document CHEMBL1201862, “PubChem BioAssay data set” (2004)
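1) Cells in 96-well plates. 2) Compound, 48 h, 5 concentrations. 3) Linear interpolation between surrounding doses. 4) Unreached endpoint = highest concentration. GI50 = concentration required for 50% inhibition of growth.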 The source made the active and inactive calls. Rule as the data show it: active = GI50 up to about 1.1 µM and inactive = higher.

Experiments:
Experiment in all cases: DTP human tumour cell line panel, 48 h
BT-549 = test system: BT-549
CAKI-1 = test system: CAKI-1
CCRF-CEM = test system: CCRF-CEM
DU-145 = test system: DU-145
HL-60 = test system: HL-60
Hs-578T = test system: Hs-578T
MCF7 = test system: MCF7
MDA-MB-435 = test system: MDA-MB-435
MOLT-4 = test system: MOLT-4
Malme-3M = test system: Malme-3M
NCI/ADR-RES = test system: NCI/ADR-RES
OVCAR-4 = test system: OVCAR-4
RXF 393 = test system: RXF 393
SF-268 = test system: SF-268
SK-MEL-2 = test system: SK-MEL-2
SN12C = test system: SN12C
SNB-19 = test system: SNB-19
SNB-75 = test system: SNB-75
TK-10 = test system: TK-10
UACC-257 = test system: UACC-257

Measured: GI50

COc1ccc(CCN(C)C(=O)CC(C#N)(c2ccccc2)c2ccc(OC)c(OC)c2)cc1OC (stereo not given)
inactive: BT-549 > 100 µM | CAKI-1 > 100 µM | CCRF-CEM > 100 µM | DU-145 > 100 µM | HL-60 > 100 µM | Hs-578T > 100 µM | MCF7 > 100 µM | MDA-MB-435 > 100 µM | MOLT-4 > 45.9 µM | Malme-3M > 100 µM | NCI/ADR-RES > 100 µM | OVCAR-4 > 100 µM | RXF 393 > 86.5 µM | SF-268 > 100 µM | SK-MEL-2 > 100 µM | SN12C > 100 µM | SNB-19 > 100 µM | SNB-75 > 100 µM | TK-10 > 100 µM | UACC-257 > 100 µM

CCc1c(Cl)c(C)cc(O)c1Cl
inactive: BT-549 16.6 µM | CAKI-1 74.1 µM | CCRF-CEM 25.7 µM | DU-145 > 100 µM | HL-60 18.3 µM | Hs-578T 25.7 µM | MCF7 32 µM | MDA-MB-435 35.6 µM | MOLT-4 27.4 µM | Malme-3M 30.1 µM | NCI/ADR-RES 45.2 µM | OVCAR-4 34.1 µM | RXF 393 23.4 µM | SF-268 53.8 µM | SK-MEL-2 20.8 µM | SN12C 16.7 µM | SNB-19 38.7 µM | SNB-75 56.8 µM | TK-10 > 100 µM | UACC-257 29.6 µM

O=C1OC(=O)C2CCCC3CCCC1C32 (stereo not given)
inactive: BT-549 > 100 µM | CAKI-1 > 100 µM | CCRF-CEM > 100 µM | DU-145 > 100 µM | HL-60 > 100 µM | Hs-578T > 100 µM | MCF7 > 100 µM | MDA-MB-435 > 100 µM | MOLT-4 > 100 µM | Malme-3M > 100 µM | NCI/ADR-RES > 100 µM | OVCAR-4 > 100 µM | RXF 393 > 100 µM | SF-268 > 100 µM | SK-MEL-2 > 100 µM | SN12C > 100 µM | SNB-19 > 100 µM | SNB-75 > 100 µM | TK-10 > 100 µM | UACC-257 > 100 µM

CC1C(=O)O[B-]2(c3ccccc3)Oc3ccccc3C=[N+]12 (stereo not given)
inactive: BT-549 > 100 µM | CAKI-1 > 100 µM | CCRF-CEM > 100 µM | DU-145 > 100 µM | HL-60 96.4 µM | Hs-578T > 100 µM | MCF7 61.2 µM | MDA-MB-435 > 100 µM | MOLT-4 > 100 µM | Malme-3M > 100 µM | NCI/ADR-RES > 100 µM | OVCAR-4 > 100 µM | RXF 393 > 100 µM | SF-268 > 100 µM | SK-MEL-2 > 100 µM | SN12C > 100 µM | SNB-19 > 100 µM | SNB-75 72.1 µM | TK-10 > 100 µM | UACC-257 > 100 µM
